pIC50, pKi: −log10 of the molar value. Where “and” joins values, the source holds several entries; their conditions need not be identical. Equal values may be shown once. Read-outs that look alike come from different tables or passages of the source. Values belong to the compound of their own block, whether it stands above or below them. Starred links: 1 amine or outer side, 2 acyl side, 3 side chain; linkers in the order of their positions; H or OH if unused. Non-standard residues stand in square brackets, D forms with d. Residues, ends and D or L forms follow the SMILES beside them. X5 = O=C([C@H](CNS(=O)(=O)O)N[*:1])[*:2]; X6 = NS(=O)(=O)CC[C@H](N[*:1])C(=O)[*:2]; X2 = O=C([C@@H](CB(O)O)N[*:1])[*:2]; X3 = O=C([C@H](CCB(O)O)N[*:1])[*:2]; X1 = O=C([C@H](CB(O)O)N[*:1])[*:2]
Legend:
[1] = target: EGFRTK (Homo sapiens, UniProt P00533); assay: EGFRTK inhibition; format: biochemical; details: % inhibition at 10 micromolar compound
From the text: (§1) Blanks for a particular enzyme indicate that inhibition was not found.

[2] = target: T1, PTP-1B (Homo sapiens, UniProt P18031); assay: PTP-1B inhibition; format: biochemical; details: % inhibition at 10 micromolar compound
T1 sequence (P18031 1-435): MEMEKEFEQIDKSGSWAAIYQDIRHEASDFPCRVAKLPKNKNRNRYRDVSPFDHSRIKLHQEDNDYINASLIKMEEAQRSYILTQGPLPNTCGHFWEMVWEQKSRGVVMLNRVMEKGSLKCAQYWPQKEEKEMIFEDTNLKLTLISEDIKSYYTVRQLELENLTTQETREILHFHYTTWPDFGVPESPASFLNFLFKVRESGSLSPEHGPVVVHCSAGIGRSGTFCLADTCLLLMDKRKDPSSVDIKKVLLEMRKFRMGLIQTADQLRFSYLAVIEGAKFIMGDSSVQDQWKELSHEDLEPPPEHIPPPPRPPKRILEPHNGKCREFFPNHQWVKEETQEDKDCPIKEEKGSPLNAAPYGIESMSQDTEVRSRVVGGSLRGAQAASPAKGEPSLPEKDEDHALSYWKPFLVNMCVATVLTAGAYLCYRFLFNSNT
From the text: as §1

[3] = target: T2, PKA (Homo sapiens, UniProt P17612); assay: Literature Mimetic PKA assay; format: biochemical; details: for pKi: Literature Mimetic (L) conditions, pentapeptide PKA inhibitors; for IC50: Literature Mimetic
From the text: (§2) The boronic acid inhibitors 21-24 have two Arg's in their sequence also and therefore will bind to the phosphocellulose paper in addition to Kemptamide (although not as consistently or completely due to one less positive charge). Consequently, when analyzed as inhibitors, the amount of phosphorylated Kemptamide produced was not only counted, but also the amount of phosphorylated inhibitor simultaneously produced (e.g. see 26 below). The net result is that distorted IC50 curves are obtained which show net “stimulation” at higher inhibitor concentrations in some cases. […] The underlying substrate behavior of these “inhibitors” makes an accurate measurement of their inhibition potency impossible with the current assay. However, it does appear from the data that homologating the boronic acid functionality out with only CH2 groups (homologations with boronic acid non-peptide Src inhibitors may also be carried out) decreases the binding affinity and ability to function as a substrate.

[4] = target: T2, PKA; assay: Cellular Mimetic PKA assay; format: biochemical; details: for % sti (stimulation) / inhibition at 2000 µM: 2000 μM inhibitor, C; for IC50: Cellular Mimetic
From the text: as §2
Phosphorylated Kemptamide is SEQ. ID. No. 6. Phosphorylated 22 is SEQ. ID. No. 4. […] The graphs show their respective rates and levels of phosphorylation with the typical loss of initial velocity kinetics with time (due to substrate depletion and end product inhibition), analogous to a standard L-Ser substrate such as Kemptamide. The comparison of 21 to 22 shown was done in the same assay run, at identical boronic acid substrate concentrations, and with identical Cellular Mimetic assay solutions so that the cpm's could be directly compared. […] That the boronic acid moiety would be phosphorylated by PKA was surprising, but it is even more surprising that the phosphonic-boronic acid mixed anhydride produced (e.g. 26) was stable enough to survive the pH 7.2/37° C. assay incubation and then be isolated by binding to phosphocellulose paper after acid quenching of the reaction with 10% TCA and washing the phosphocellulose paper with 25 mM phosphoric acid (3×). An STN substructure search was run on mixed anhydrides of phosphoric and boronic acids and found only three references to experiments and theoretical calculations for the analogous putative (but not proven) anhydride formed from boric acid and phosphoric acid as a solid surface impregnated catalyst for the partial oxidation of ethane to acetaldehyde at 823° K. (Zhanpeisov & Otsuka, 1992, Otsuka et al., 1992, Murakami et al., 1990). However, this highly unusual anhydride has never before been synthesized free of a solid surface, isolated, or characterized. Thus, this is a novel enzymatic reaction and chemical entity with interesting possibilities for protein kinase inhibitor designs.

[5] = target: pp60^c-src (Homo sapiens, UniProt P12931); assay: Cellular Mimetic Src assay (RR-SRC phosphorylation); details: for pKi: Ki, Table IV; for inhibition at 1000 µM: read-out: % Inhibition of 2 mM RR-src at Inhibitor Concentration (1 mM)
[6] = 0 h preincubation, read-out: IC50 μM (cond. L, 0 h preincubation)
[7] = 0 h preincubation, * very distorted IC50 curve, read-out: IC50 μM (cond. C, 0 h preincubation)
[8] = read-out: % Inhibition at 100 μM (std. dev.)
[9] = IC50 μM (cond. L, 4 h preincubation), 4 h preincubation, * very distorted IC50 curve
[10] = read-out: % Inhibition of 2 mM RR-src at Inhibitor Concentration (100 μM)

Chain of pp60^c-src (P12931 whole entry): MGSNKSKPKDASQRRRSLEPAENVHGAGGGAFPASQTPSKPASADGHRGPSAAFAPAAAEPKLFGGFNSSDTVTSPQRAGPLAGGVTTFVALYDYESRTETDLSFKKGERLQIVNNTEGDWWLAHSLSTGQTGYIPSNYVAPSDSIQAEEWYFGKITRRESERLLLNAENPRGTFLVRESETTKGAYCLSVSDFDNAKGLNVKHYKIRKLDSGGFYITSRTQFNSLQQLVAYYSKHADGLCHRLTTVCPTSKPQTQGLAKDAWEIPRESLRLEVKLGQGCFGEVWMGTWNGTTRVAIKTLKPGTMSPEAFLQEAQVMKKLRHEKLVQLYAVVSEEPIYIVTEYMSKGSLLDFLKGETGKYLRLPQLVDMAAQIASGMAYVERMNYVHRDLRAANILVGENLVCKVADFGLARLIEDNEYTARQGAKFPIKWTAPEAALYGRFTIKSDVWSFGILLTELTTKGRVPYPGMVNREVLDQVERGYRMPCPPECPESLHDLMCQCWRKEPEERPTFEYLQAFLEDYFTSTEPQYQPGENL
Chain of EGFRTK (P00533 25-1210): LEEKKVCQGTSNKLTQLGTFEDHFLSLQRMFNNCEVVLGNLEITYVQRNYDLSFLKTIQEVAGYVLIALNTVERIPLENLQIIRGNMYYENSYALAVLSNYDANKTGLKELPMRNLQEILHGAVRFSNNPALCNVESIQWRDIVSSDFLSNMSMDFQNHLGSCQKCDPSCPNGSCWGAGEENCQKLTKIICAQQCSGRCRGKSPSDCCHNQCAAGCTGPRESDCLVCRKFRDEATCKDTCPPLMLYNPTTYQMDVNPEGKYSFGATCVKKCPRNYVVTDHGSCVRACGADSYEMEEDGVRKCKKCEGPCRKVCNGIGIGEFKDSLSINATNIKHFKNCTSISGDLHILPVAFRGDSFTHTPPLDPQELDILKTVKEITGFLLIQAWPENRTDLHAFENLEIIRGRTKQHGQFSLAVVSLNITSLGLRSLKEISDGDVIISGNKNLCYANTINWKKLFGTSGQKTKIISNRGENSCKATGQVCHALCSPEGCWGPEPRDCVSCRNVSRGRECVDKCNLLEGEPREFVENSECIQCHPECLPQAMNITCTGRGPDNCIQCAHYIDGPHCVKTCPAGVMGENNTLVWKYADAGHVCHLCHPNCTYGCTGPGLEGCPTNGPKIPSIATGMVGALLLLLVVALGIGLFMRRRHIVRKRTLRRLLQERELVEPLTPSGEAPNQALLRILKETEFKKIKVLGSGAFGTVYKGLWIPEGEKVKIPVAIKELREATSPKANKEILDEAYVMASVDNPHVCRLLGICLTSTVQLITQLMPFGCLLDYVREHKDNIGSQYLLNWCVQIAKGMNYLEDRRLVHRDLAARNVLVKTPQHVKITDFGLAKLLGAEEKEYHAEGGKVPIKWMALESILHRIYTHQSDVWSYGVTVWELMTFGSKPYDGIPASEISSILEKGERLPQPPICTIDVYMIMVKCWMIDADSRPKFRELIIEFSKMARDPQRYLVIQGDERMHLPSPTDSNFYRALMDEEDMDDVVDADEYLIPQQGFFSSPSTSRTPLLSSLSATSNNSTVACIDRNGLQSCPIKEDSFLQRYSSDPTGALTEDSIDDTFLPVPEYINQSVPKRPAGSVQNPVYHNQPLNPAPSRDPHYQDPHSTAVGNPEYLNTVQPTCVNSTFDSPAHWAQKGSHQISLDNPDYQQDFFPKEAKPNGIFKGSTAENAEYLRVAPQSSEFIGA

Compound: O=C(NCc1ccc(Br)cc1)c1cc2cc(F)ccc2[nH]1 [Compound 1kkkk]
EGFRTK @ 10 μm [1]: 30%

Compound: O=C(NCc1ccc(F)cc1)c1cc2cc(F)ccc2[nH]1 [Compound 1uuu]
PTP-1B @ 10 μm [2]: 13%

Compound: O=C(NCc1ccccc1Cl)c1cc2cc(F)ccc2[nH]1 [Compound 1yy]
PTP-1B @ 10 μm [2]: 10%

Compound: O=C(Nc1cccc(CO)c1)c1cc2cc(F)ccc2[nH]1 [Compound 1yyy]
EGFRTK @ 10 μm [1]: 11%

Compound: O=C(NCc1ccc(F)cc1C(F)(F)F)c1[nH]c2ccc(F)cc2c1-c1ccccc1 [Compound 2hh]
EGFRTK @ 10 μm [1]: 12%

Compound: CC[C@H](C)[C@H](NC(=O)[C@H](CNS(=O)(=O)O)NC(=O)CNC(=O)[C@H](CCCNC(=N)N)NC(=O)[C@H](CCCNC(=N)N)NC(C)=O)C(N)=O [Compound 8] (Ac-RRG[X5]I-NH2)
pKi ([3]; Ki): 6.80

Compound: CC[C@H](C)[C@H](NC(=O)[C@H](CCB(O)O)NC(=O)CNC(=O)[C@H](CCCNC(=N)N)NC(=O)[C@H](CCCNC(=N)N)NC(C)=O)C(N)=O [Compound 23] (Ac-RRG[X3]I-NH2)
IC50 [3, 9]: 133 µM
IC50 [3, 6]: 398 µM
inhibition at 2000 µM ([4]; 0 h preincubation): 16%
% sti (stimulation) ([4]; 4 h preincubation): 5%
inhibition at 2000 µM ([4]; 4 h preincubation): 5%

Compound: Oc1cc(O)cc(/C=C/c2ccc(O)c(O)c2)c1 [Piceatannol, reference compound]
inhibition at 100 µM ([5]; read-out: % Inhibition at 100 μM (std. dev.), Table IX, hydroxynaphthalene derivatives and published inhibitors): 41%

Compound: Oc1cc(O)cc(/C=C/c2ccc(O)c(O)c2)c1 [drawing 66, piceatannol, reference compound]
inhibition at 100 µM ([5]; read-out: % Inhibition of 2 mM RR-src at Inhibitor Concentration (100 μM), Table V, inhibitor 100 μM): 41%

Continued, values first:

EGFRTK @ 10 μm [1]: 17%
Compound: CCCOc1ccc(CNC(=O)c2cc3cc(F)ccc3[nH]2)cc1O [Compound 1nnnn]

EGFRTK @ 10 μm [1]: 18%
Compound: O=C(NCCCCCCO)c1cc2cc(F)ccc2[nH]1 [Compound 1qqqq]

PTP-1B @ 10 μm [2]: 12%
Compound: O=C(NCc1ccc(Cl)cc1Cl)c1cc2cc(F)ccc2[nH]1 [Compound 1ss]

PTP-1B @ 10 μm [2]: 12%
Compound: O=C(Nc1ccccc1CO)c1cc2cc(F)ccc2[nH]1 [Compound 1xxx]

EGFRTK @ 10 μm [1]: 10%
Compound: O=C(NCc1cc(Br)ccc1F)c1[nH]c2ccc(F)cc2c1-c1ccccc1 [Compound 2ll]

pKi ([3]; read-out: Ki): 3.52
Compound: CC[C@H](C)[C@H](NC(=O)[C@H](CCS(N)(=O)=O)NC(=O)CNC(=O)[C@H](CCCNC(=N)N)NC(=O)[C@H](CCCNC(=N)N)NC(C)=O)C(N)=O [Compound 7] (Ac-RRG[X6]I-NH2)

inhibition at 500 µM ([3]; 500 μM inhibitor, L, 4 h preincubation): 34%
pKi ([3]; read-out: Ki): ~5.05
IC50 [3, 6]: 249 µM
% sti (stimulation) ([4]; 4 h preincubation): 19%
% sti (stimulation) ([4]; 4 h preincubation, listed as drawing 32): *2000 μM 19% sti
IC50 [4, 7]: 764 µM
inhibition at 100 µM [5, 8]: 54%
Compound: CC[C@H](C)[C@H](NC(=O)[C@H](CB(O)O)NC(=O)CNC(=O)[C@H](CCCNC(=N)N)NC(=O)[C@H](CCCNC(=N)N)NC(C)=O)C(N)=O [Compound 21] (Ac-RRG[X1]I-NH2)

IC50 [3, 9]: 65 µM
IC50 [3, 6]: 81 µM
% sti (stimulation) ([4]; 4 h preincubation): 71%
% sti (stimulation) ([4]; 4 h preincubation, listed as drawing 33): *2000 μM 71% sti
IC50 [4, 7]: 1750 µM
Compound: CC[C@H](C)[C@H](NC(=O)[C@@H](CB(O)O)NC(=O)CNC(=O)[C@H](CCCNC(=N)N)NC(=O)[C@H](CCCNC(=N)N)NC(C)=O)C(N)=O [Compound 22] (Ac-RRG[X2]I-NH2)

pIC50 [5]: 3.02
pKi [5]: ~3.26 and 3.26
inhibition at 100 µM [5, 10]: 13%
inhibition at 1000 µM [5]: 59%
Compound: OB(O)c1ccc2ccccc2c1 [Compound 27, 2-naphthalene boronic acid]

pIC50 [5]: 2.80
pKi [5]: 3.02
inhibition at 1000 µM [5]: 31%
Compound: O=S(=O)(O)Nc1ccc2ccccc2c1 [Compound 28]

% Inhibition of 2 mM RR-src at Inhibitor Concentration (100 μM) ([5]; Table V, inhibitor 100 μM): 30 (100 μM) %
inhibition at 100 µM [5, 10]: 30%
Compound: N=c1oc2c(O)cccc2cc1C(=O)Nc1cccc(O)c1 [Compound 50, reference compound]

% Inhibition at 100 μM (std. dev.) ([5]; Table IX, hydroxynaphthalene derivatives and published inhibitors): 30 (+/−15) %
inhibition at 100 µM [5, 8]: 30%
Compound: N=c1oc2c(O)cccc2cc1C(=O)Nc1cccc(O)c1 [Iminochromene 9TA, reference compound]

IC50 [3, 9]: 417 µM
pKi ([3]; read-out: Ki): ~5.05 and 5.05
IC50 [3, 6]: 278 µM
pKi ([4]; Cellular Mimetic (C) conditions): 4.60
IC50 [4, 7]: 41 µM
IC50 ([4]; IC50 μM (cond. C, 4 h preincubation), 4 h preincubation): 50 µM
Compound: Ac-RRGAI-NH2 [Compound 20]

— US7772216B2, “Protein kinase and phosphatase inhibitors and methods for designing them” (The Research Foundation of State University of New York, priority 2001, dated 2010)
